# Measured values taken from US5177082A, “Huperzines and analogs” (priority 1990, dated 1993).
# Where two headings read alike, the source gives them in different places.
# How the values were obtained:
# pseudocholinesterase = biological target: T1, pseudocholinesterase (Rattus norvegicus, UniProt Q9JKC1); assay: biochemical
# T1 construct: 0.1 ml of rat blood serum; from tissue; host or cells: rat blood serum
# Experimental: (§1) Red blood cell membranes of rats were used as the source for the true cholinesterase with a substrate concentration of 0.3 mM of S-acetylthiocholine iodide. The source for pseudocholinesterase was 0.1 ml of rat blood serum and the substrate was 0.4 mM S-butyrylthiocholine iodide. The Ellman colorimetric method was used to measure the enzyme activity. The percentage of enzyme activity remaining was plotted against negative logarithm (pI) of the drug concentration and the pI50 (the negative logarithm of the gram molecule concentration of the drug required to inhibit the enzyme activity 50%) was derived.
# true cholinesterase = true cholinesterase (Rattus norvegicus, UniProt P37136); assay: biochemical; parameters: Red blood cell membranes of rats; from tissue; host or cells: rat red blood cell membranes
# Experimental: as §1
# in vivo [1] = settings: mouse, ip
# [2] = tested on: In Vitro Rat Nerve/Diaphragm Muscle Contraction; assay: In vitro phrenic nerve/diaphragm preparations of rats, enhancement of muscle contraction; settings: for EC50: read-out: Enhancement of Muscle Contraction Amplitude, 50% Concentration; for Strength of Effect: relative to Huperzine A = 1.00
# Experimental: 1. In Vitro Phrenic Nerve/Diaphragm Preparations of Rats.
# After the fast decapitation of a rat, the thoracic cavity was opened and the right diaphragm with attached phrenic nerve was removed. After placing it in a Tyrode's solution (37° C. constant temperature), gassed with 95% oxygen+5% CO2, electrical stimulation (1-10 V, 0.5 ms, 1 c/10 s) of the phrenic nerve was used to produce muscle contraction. A transducer was used to record the contraction amplitude on a panel recorder. […].
# Rats = settings: rat, in vivo
# in vivo [3] = settings: rat, ip
# [4] = tested on: Sciatic Nerve/Tibialis Muscle Preparation; assay: Anesthetized rat sciatic nerve/tibialis muscle preparation; type: in vivo; settings: for minimal effective dose: Rattus norvegicus, iv, read-out: Lowest Effective Dosage for Enhancing Muscle Contraction
# Experimental: (§2) Anesthesized Rat and Rabbit Sciatic Nerve/Tibialis Muscle Preparation
# (§3) Anesthesia was produced in rats by ip injections of 30 mg/kg of pentobarbital and in rabbits by iv injections of 1 g/kg of urethane. Electric stimulation of the periphery of the sciatic nerve (5-10 V, 0.5 ms, 1 c/10 s) caused tibialis contraction which was recorded on smoked paper.
# [5] = tested on: Sciatic Nerve/Tibialis Muscle Preparation; assay: Anesthetized rabbit sciatic nerve/tibialis muscle preparation; type: in vivo; settings: rabbits; for minimal effective dose: Oryctolagus cuniculus, iv, read-out: Lowest Effective Dosage for Enhancing Muscle Contraction
# Experimental: as §2, §3
# Mice = settings: mouse, in vivo
# TA100 = assay: Mutation test (Ames) TA100 + S9; settings: 1500 μg/container
# [6] = tested on: learning functions of rats; assay: Y maze conditioned reflex test, learning process of rats; settings: 0.08 mg/kg, iv
# Text: Each animal was required to go through 10 successive shock-free runs to be classified as learned.
# memory functions of rats = assay: Memory function of preconditioned rats after 48 hours; type: in vivo, rat; settings: 0.15 mg/kg, after 48 hours
# Experimental: To evaluate the impact on the memory function, preconditioned animals going through 5 shock-free runs were used as learned animals. After 48 hours the drug-free (control) animals required 14.4±8.9 shocks to become learned.
# patients = assay: Clinical side effects in patients with myasthenia gravis; type: in vivo, human
# Experimental: Patients affected with myasthenia gravis (MG) with typical clinical symptoms which improved after using neostigmine were the subjects for testing and verification. […] It was generally used for at least ten days and each dosage was 0.4-0.5 mg. […] The injections were all given in the morning and on the morning prior to the injections anticholinesterase drugs were discontinued. Neither the patients nor the doctors knew which drug was being injected. Later, the symptoms, the duration of the improvements, if any, which were obtained by the drugs and the side effects were recorded. Based on these factors, the relative merits of the two drugs were established.
# myasthenia gravis = assay: Double blind cross-over comparison of Huperzine A and neostigmine, 69 cases of myasthenia gravis; type: in vivo, human
# Text: Patients affected with myasthenia gravis (MG) with typical clinical symptoms which improved after using neostigmine were the subjects for testing and verification. […] The injections were all given in the morning and on the morning prior to the injections anticholinesterase drugs were discontinued. Neither the patients nor the doctors knew which drug was being injected. Later, the symptoms, the duration of the improvements, if any, which were obtained by the drugs and the side effects were recorded.
# (1) Comparison of the maintained times of the effects.
# [7] = 0.3 mM S-acetylthiocholine iodide, read-out: Inhibition of Cholinesterase (pI50), Red Blood Cells (converted)
# [8] = in vitro rat phrenic nerve/diaphragm, 37° C.
# [9] = 0.4 mM S-butyrylthiocholine iodide, read-out: Inhibition of Cholinesterase (pI50), Blood serum (converted)
# true cholinesterase, sequence (P37136-2 with tags, fused parts or gaps limits assumed): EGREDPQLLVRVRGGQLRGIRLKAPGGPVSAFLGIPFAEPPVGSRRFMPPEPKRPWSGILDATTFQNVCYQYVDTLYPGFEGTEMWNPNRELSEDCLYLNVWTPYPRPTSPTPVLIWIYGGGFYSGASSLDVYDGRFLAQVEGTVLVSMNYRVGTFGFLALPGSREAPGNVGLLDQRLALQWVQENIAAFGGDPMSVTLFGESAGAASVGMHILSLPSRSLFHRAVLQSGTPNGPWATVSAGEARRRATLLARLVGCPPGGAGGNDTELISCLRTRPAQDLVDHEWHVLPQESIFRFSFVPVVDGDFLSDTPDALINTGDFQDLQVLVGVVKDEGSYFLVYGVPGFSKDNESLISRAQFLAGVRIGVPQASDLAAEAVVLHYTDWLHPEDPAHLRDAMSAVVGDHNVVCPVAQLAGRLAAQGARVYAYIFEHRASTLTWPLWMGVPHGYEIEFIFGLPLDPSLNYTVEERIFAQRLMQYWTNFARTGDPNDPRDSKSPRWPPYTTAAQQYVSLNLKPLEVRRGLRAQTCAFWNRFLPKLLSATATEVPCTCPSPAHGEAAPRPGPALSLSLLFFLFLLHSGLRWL
# T1 sequence (Q9JKC1 24-597): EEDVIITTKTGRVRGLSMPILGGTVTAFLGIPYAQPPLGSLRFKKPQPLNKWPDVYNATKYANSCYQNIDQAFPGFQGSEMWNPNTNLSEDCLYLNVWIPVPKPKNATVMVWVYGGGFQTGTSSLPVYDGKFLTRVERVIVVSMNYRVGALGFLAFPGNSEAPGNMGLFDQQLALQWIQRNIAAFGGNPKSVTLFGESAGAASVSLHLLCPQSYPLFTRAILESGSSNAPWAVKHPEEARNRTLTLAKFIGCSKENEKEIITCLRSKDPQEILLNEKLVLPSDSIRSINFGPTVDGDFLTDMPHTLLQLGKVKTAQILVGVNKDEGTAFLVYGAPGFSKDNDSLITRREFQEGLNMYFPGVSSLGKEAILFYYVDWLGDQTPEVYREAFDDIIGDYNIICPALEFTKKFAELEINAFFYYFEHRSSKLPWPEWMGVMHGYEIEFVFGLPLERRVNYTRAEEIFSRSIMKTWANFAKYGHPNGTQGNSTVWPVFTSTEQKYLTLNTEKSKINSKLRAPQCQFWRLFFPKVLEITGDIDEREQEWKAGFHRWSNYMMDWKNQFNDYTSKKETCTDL
compound,measurement,setting,value
"C/C=C1\[C@H]2C=C(C)C[C@]1(NC(C)=O)c1ccc(=O)[nH]c1C2 [N-acetyl huperzine A, (5R, 9R, 11E)-5-(acetylamino)-11-ethylidene-5,6,9,10-tetrahydro-7-methyl-5,9-methanocycloocta[b]pyridin-2(1H)-one]","Inhibition of Cholinesterase, Blood serum (concentration found ineffective)",pseudocholinesterase,1.1 × 10^-2 M ineffective
same,IC50,true cholinesterase; [7],> 3160 µM
"COc1ccc2c3c1O[C@H]1C[C@@H](O)C=C[C@@]31CCN(C)C2 [Galanthamine, reference compound]",LD50,in vivo [1],13.4 mg/kg
same,"Inhibition of Cholinesterase (pI50), Blood serum",pseudocholinesterase,4.9
same,EC50,[2]; [8],4.2 µM
same,Strength of Effect,[2],0.10
same,Toxic Strength,Rats,1.22
same,LD50,in vivo [3],22.9 mg/kg
same,minimal effective dose,[4],0.5 mg/kg
same,Strength of Effect,"[4]; rat, in vivo",1.0
same,minimal effective dose,[5],0.5 mg/kg
same,Strength of Effect,[5]; galanthamine = 1.0,1.0
same,Toxic Strength,Mice,0.13
O=P1(N(CCCl)CCCl)NCCCO1 (stereo not shown) [Cyclophosphamide],"reverse mutation colonies, TA100 + S9",TA100,566 ± 10
"C/C=C1\[C@H]2C=C(C)C[C@]1(N(C)C)c1ccc(=O)[nH]c1C2 [N-dimethyl huperzine A, (5R, 9R, 11E)-11-ethylidene-5,6,9,10-tetrahydro-7-methyl-5-(dimethylamino)-5,9-methanocycloocta[b]pyridin-2(1H)-one]","Inhibition of Cholinesterase, Blood serum (concentration found ineffective)",pseudocholinesterase; 0.4 mM S-butyrylthiocholine iodide,1.2 × 10^-2 M ineffective
same,IC50,true cholinesterase,158 µM
"CNC(=O)Oc1ccc2c(c1)[C@]1(C)CCN(C)[C@@H]1N2C [Physostigmine, reference compound]",LD50,in vivo [1],0.8 mg/kg
same,IC50,pseudocholinesterase,1.12 µM
same,EC50,[2]; [8],0.245 µM
same,Strength of Effect,[2],1.79
same,Toxic Strength,Rats,2.08
same,shocks accepted before achieving the learned state (learning),[6],7.9±3.5 shocks
same,LD50,in vivo [3],2.4 mg/kg
same,minimal effective dose,[4]; rats,0.05 mg/kg
same,Strength of Effect,"[4]; rats, physostigmine = 1.0",1.0
same,shocks required to achieve the learned state (memory),memory functions of rats,6.4±3.7 shocks
same,minimal effective dose,[5],0.12 mg/kg
same,effect on electrically stimulated muscle contraction,[5]; iv (Huperzine A 30 μg/kg),enhanced the rabbit's tibialis muscle contraction amplitude but to a lesser degree than that observed for the rats
same,Strength of Effect,[5]; physostigmine = 1.0,1.0
same,Toxic Strength,Mice,2.25
"CCC1[C@H]2C=C(C)C[C@]1(N)c1ccc(=O)[nH]c1C2 (stereo partly drawn) [11,12-dihydro-huperzine A, (5R, 9R)-5-amino-11-ethyl-5,6,9,10-tetrahydro-7-methyl-5,9-methanocycloocta[b]pyridin-2(1H)-one]",IC50,pseudocholinesterase; [9],12.6 µM
same,IC50,true cholinesterase,0.631 µM
"CN(C)C(=O)Oc1cccc([N+](C)(C)C)c1 [Neostigmine, reference compound]","Abdominal pains, %",patients; control group,7.4%
same,"Abdominal pains, number of times",patients; control group,26
same,"Blurred vision, %",patients; control group,9.7%
same,"Blurred vision, number of times",patients; control group,24
same,"Dizziness, %",patients; control group,19.5%
same,"Dizziness, number of times",patients; control group,68
same,"Drooling, %",patients; control group,1.2%
same,"Drooling, number of times",patients; control group,11
same,"Increase in the number of bowel movements, %",patients; control group,2.0%
same,"Increase in the number of bowel movements, number of times",patients; control group,7
same,"Muscle bundle quivering, %",patients; control group,8.3%
same,"Muscle bundle quivering, number of times",patients; control group,29
same,"Myosis, %",patients; control group,3.4%
same,"Myosis, number of times",patients; control group,12
same,"Nausea, %",patients; control group,4.3%
same,"Nausea, number of times",patients; control group,15
same,"Perspiring, %",patients; control group,12.1%
same,"Perspiring, number of times",patients; control group,43
same,"Tinnitus, %",patients; control group,4.0%
same,"Tinnitus, number of times",patients; control group,14
same,"Vomiting, %",patients; control group,1.2%
same,"Vomiting, number of times",patients; control group,6
same,cases with side effects,"patients; control patients, 69 cases",34 cases
same,"cases with side effects, %","patients; control patients, 69 cases, X^2 =3.58, P>0.05",49.27%
same,perspiring and blurred vision vs Huperzine A,"patients; perspiring X^2 =5.5, P<0.01, blurred vision X^2 =12.96, P<0.001",more noticeably than Hyperzine A caused perspiring and blurred vision
same,IC50,pseudocholinesterase; [9],3.55 µM
same,EC50,[2]; Rattus norvegicus,0.272 µM
same,Strength of Effect,[2],1.61
same,IC50,true cholinesterase; [7],0.224 µM
same,"action time of neostigmine longer than Huperzine A, %",myasthenia gravis,8.69%
same,"action time of neostigmine longer than Huperzine A, cases",myasthenia gravis,6 cases
"CCC1[C@H]2Cc3[nH]c(=O)ccc3[C@@]1(N)CC(C)C2 (stereo partly drawn) [tetrahydro-huperzine A, (5R, 9R)-5-amino-11-ethyl-5,6,7,8,9,10-hexahydro-7-methyl-5,9-methanocycloocta[b]pyridin-2(1H)-one]",IC50,pseudocholinesterase; [9],50.1 µM
same,IC50,true cholinesterase; [7],2.51 µM
"C/C=C1\[C@H]2C=C(C)C[C@]1(N(C)C)c1ccc(=O)n(C)c1C2 [N-trimethyl-huperzine A, (5R, 9R, 11E)-11-ethylidene-5,6,9,10-tetrahydro-1,7-dimethyl-5-(dimethylamino)-5,9-methanocycloocta[b]pyridin-2(1H)-one]","Inhibition of Cholinesterase, Blood serum (concentration found ineffective)",pseudocholinesterase,1.1 × 10^-2 M ineffective
same,IC50,true cholinesterase; [7],316 µM
"CC1=C[C@H]2Cc3[nH]c(=O)ccc3[C@@]3(C1)[C@@H]2CCCN3C [N-methyl huperzine B, (4aR, 5R, 10bR)-1,2,3,4,4a,5,6,10b-octahydro-1,12-dimethyl-5,10b-propeno-1,7-phenanthrolin-8(7H)-one]",IC50,pseudocholinesterase; [9],316 µM
"CC1=C[C@H]2Cc3[nH]c(=O)ccc3[C@]3(C1)NCCC[C@H]23 [Huperzine B, (4aR, 5R, 10bR)-1,2,3,4,4a,5,6,10b-octahydro-12-methyl-5,10b-propeno-1,7-phenanthrolin-8(7H)-one]",IC50,pseudocholinesterase,200 µM
same,EC50,[2]; Rattus norvegicus,4.8 µM
same,Strength of Effect,[2],0.09
same,IC50,true cholinesterase,0.501 µM
Tubocurarine [reference compound],block of electrically induced muscle contraction,"[4]; tubocurarine 0.3 mg/kg iv, species not separated (rats/rabbits)",completely blocked the electrically induced muscle contraction
